Earlier results as cited in PubChem BioAssay AID1259409 (Chemical Carcinogenesis Research Information System (CCRIS), 2018).

System: rodent chemically induced tumor inhibition, incidence and multiplicity
Test: CCRIS tumor inhibitor studies

Q: What does the source list for `CC(=O)[C@@H]1C[C@@H]2C[C@H]1[C@@H](N=C=S)C2`?
A: tumour outcome (control, treated, inhibition, significance) (Carcinogen: 7,12-DIMETHYLBENZ[A]ANTHRACENE, 57-97-6, Dose [Inhibitor]: 0, 75 UMOL/D IN 0.5 ML EMULPHOR EL-620 FOR 5 CONSECUTIVE DAYS BEGINNING AT 47 D OF AGE (STUDY DURATION: 155 D), Route [Inhibitor]: GAVAGE, Species: RAT, Strain/Sex: SPRAGUE-DAWLEY/FEMALE, Target Tissue: Type of Lesion: MAMMARY GLAND: TUMOR, Dose [Carcinogen]: 8 MG IN 1 ML SESAME OIL ONCE AT 50 D OF AGE, Promoter: NONE USED): 17/25 (68%), 5/20 (25%), 63%, p<0.05; tumour outcome (control, treated, inhibition, significance) (Carcinogen: 7,12-DIMETHYLBENZ[A]ANTHRACENE, 57-97-6, Dose [Inhibitor]: 0, 150 UMOL/D IN 0.5 ML EMULPHOR EL-620 FOR 5 CONSECUTIVE DAYS BEGINNING AT 47 D OF AGE (STUDY DURATION: 155 D), Route [Inhibitor]: GAVAGE, Species: RAT, Strain/Sex: SPRAGUE-DAWLEY/FEMALE, Target Tissue: Type of Lesion: MAMMARY GLAND: TUMOR, Dose [Carcinogen]: 8 MG IN 1 ML SESAME OIL ONCE AT 50 D OF AGE, Promoter: NONE USED): 17/25 (68%), 5/20 (25%), 63%, p<0.05

Q: For `C/C(=C\c1ccc(C(=O)O)cc1)c1ccc2c(c1)C(C)(C)CCS2`, which “tumour outcome (control, treated, inhibition, significance)” value (Carcinogen: 7,12-DIMETHYLBENZ[A]ANTHRACENE, 57-97-6, Dose [Inhibitor]: 1.7 NMOL IN 0.2 ML ACETONE 1 HR PRIOR TO EACH PROMOTER DOSE FOR 12 WK (STUDY DURATION: 14 WK), Route [Inhibitor]: DERMAL, Species: MOUSE, Strain/Sex: SENCAR/FEMALE, Target Tissue: Type of Lesion: SKIN: PAPILLOMA, Dose [Carcinogen]: 200 NMOL IN 0.2 ML ACETONE ONCE, Promoter: 12-O-TETRADECANOYLPHORBOL-13-ACETATE, 16561-29-8) is on record?
A: 100%, 100%, 0%, not calculated

Q: And the “tumour outcome (control, treated, inhibition, significance)” value (Carcinogen: 7,12-DIMETHYLBENZ[A]ANTHRACENE, 57-97-6, Dose [Inhibitor]: 1.7 NMOL IN 0.2 ML ACETONE 1 HR PRIOR TO EACH PROMOTER DOSE FOR 20 WK (STUDY DURATION: 22 WK), Route [Inhibitor]: DERMAL, Species: MOUSE, Strain/Sex: CD-1/FEMALE, Target Tissue: Type of Lesion: SKIN: PAPILLOMA, Dose [Carcinogen]: 200 NMOL IN 0.2 ML ACETONE ONCE, Promoter: 12-O-TETRADECANOYLPHORBOL-13-ACETATE, 16561-29-8)?
A: 94%, 93%, 1%, not calculated

Q: What about the “tumour outcome (control, treated, inhibition, significance)” value (Carcinogen: 7,12-DIMETHYLBENZ[A]ANTHRACENE, 57-97-6, Dose [Inhibitor]: 17 NMOL IN 0.2 ML ACETONE 1 HR PRIOR TO EACH PROMOTER DOSE FOR 12 WK (STUDY DURATION: 14 WK), Route [Inhibitor]: DERMAL, Species: MOUSE, Strain/Sex: SENCAR/FEMALE, Target Tissue: Type of Lesion: SKIN: PAPILLOMA, Dose [Carcinogen]: 200 NMOL IN 0.2 ML ACETONE ONCE, Promoter: 12-O-TETRADECANOYLPHORBOL-13-ACETATE, 16561-29-8) of the same compound?
A: 100%, 90%, 10%, not calculated

Q: And the “tumour outcome (control, treated, inhibition, significance)” value (Carcinogen: 7,12-DIMETHYLBENZ[A]ANTHRACENE, 57-97-6, Dose [Inhibitor]: 17 NMOL IN 0.2 ML ACETONE 1 HR PRIOR TO EACH PROMOTER DOSE FOR 20 WK (STUDY DURATION: 22 WK), Route [Inhibitor]: DERMAL, Species: MOUSE, Strain/Sex: CD-1/FEMALE, Target Tissue: Type of Lesion: SKIN: PAPILLOMA, Dose [Carcinogen]: 200 NMOL IN 0.2 ML ACETONE ONCE, Promoter: 12-O-TETRADECANOYLPHORBOL-13-ACETATE, 16561-29-8)?
A: 94%, 38%, 60%, not calculated

Q: What about the “tumour outcome (control, treated, inhibition, significance)” value (Carcinogen: 7,12-DIMETHYLBENZ[A]ANTHRACENE, 57-97-6, Dose [Inhibitor]: 170 NMOL IN 0.2 ML ACETONE 1 HR PRIOR TO EACH PROMOTER DOSE FOR 12 WK (STUDY DURATION: 14 WK), Route [Inhibitor]: DERMAL, Species: MOUSE, Strain/Sex: SENCAR/FEMALE, Target Tissue: Type of Lesion: SKIN: PAPILLOMA, Dose [Carcinogen]: 200 NMOL IN 0.2 ML ACETONE ONCE, Promoter: 12-O-TETRADECANOYLPHORBOL-13-ACETATE, 16561-29-8) of the same compound?
A: 100%, 38%, 62%, not calculated

Q: What about the “tumour outcome (control, treated, inhibition, significance)” value (Carcinogen: 7,12-DIMETHYLBENZ[A]ANTHRACENE, 57-97-6, Dose [Inhibitor]: 170 NMOL IN 0.2 ML ACETONE 1 HR PRIOR TO EACH PROMOTER DOSE FOR 20 WK (STUDY DURATION: 22 WK), Route [Inhibitor]: DERMAL, Species: MOUSE, Strain/Sex: CD-1/FEMALE, Target Tissue: Type of Lesion: SKIN: PAPILLOMA, Dose [Carcinogen]: 200 NMOL IN 0.2 ML ACETONE ONCE, Promoter: 12-O-TETRADECANOYLPHORBOL-13-ACETATE, 16561-29-8) of the same compound?
A: 94%, 24%, 74%, not calculated

Q: What does the source list for `COCC(=O)[C@@]1(OC(C)=O)CC[C@H]2[C@@H]3CCC4=CC(=O)CCC4=C3[C@@H](c3ccc(N(C)C)cc3)C[C@@]21C`?
A: tumour outcome (control, treated, inhibition, significance) (Carcinogen: 7,12-Dimethylbenz(a)anthracene (57-97-6), Dose [Inhibitor]: 1 mg administered daily for 28 days, Route [Inhibitor]: Subcutaneous, Species: Rat, Strain/Sex: Sprague-Dawley/Female, Target Tissue: Type of Lesion: Mammary gland: Adenocarcinoma and papilliary carcinoma, Dose [Carcinogen]: 10 mg/kg once at 50 days of age, Promoter: None): 12/13 (92%), 9/11 (82%), 11%, ns; tumour outcome (control, treated, inhibition, significance) (Carcinogen: 7,12-Dimethylbenz(a)anthracene (57-97-6), Dose [Inhibitor]: 2 mg administered daily for 28 days, Route [Inhibitor]: Subcutaneous, Species: Rat, Strain/Sex: Sprague-Dawley/Female, Target Tissue: Type of Lesion: Mammary gland: Adenocarcinoma and papillary carcinoma, Dose [Carcinogen]: 10 mg/kg once at 50 days of age, Promoter: None): 12/13 (92%), 11/12 (92%), 0%, ns; tumour outcome (control, treated, inhibition, significance) (Carcinogen: 7,12-Dimethylbenz(a)anthracene (57-97-6), Dose [Inhibitor]: 2 mg administered daily for 28 days, Route [Inhibitor]: Subcutaneous, Species: Rat, Strain/Sex: Sprague-Dawley/Female, Target Tissue: Type of Lesion: Mammary gland: Adenocarcinoma and papillary carcinoma, Dose [Carcinogen]: 10 mg/kg once at 50 days of age, Promoter: Progesterone (57-83-0)): 12/13 (92%), 10/11 (91%), 0%, ns; tumour outcome (control, treated, inhibition, significance) (Carcinogen: 7,12-Dimethylbenz(a)anthracene (57-97-6), Dose [Inhibitor]: 10 mg administered daily for 28 days, Route [Inhibitor]: Subcutaneous, Species: Rat, Strain/Sex: Sprague-Dawley/Female, Target Tissue: Type of Lesion: Mammary gland: Adenocarcinoma and papillary carcinoma, Dose [Carcinogen]: 10 mg/kg once at 50 days of age, Promoter: None): 12/13 (92%), 10/11 (91%), 0%, ns; tumour outcome (control, treated, inhibition, significance) (Carcinogen: 7,12-Dimethylbenz(a)anthracene (57-97-6), Dose [Inhibitor]: 10 mg administered daily for 28 days, Route [Inhibitor]: Subcutaneous, Species: Rat, Strain/Sex: Sprague-Dawley/Female, Target Tissue: Type of Lesion: Mammary gland: Adenocarcinoma and papillary carcinoma, Dose [Carcinogen]: 10 mg/kg once at 50 days of age, Promoter: Progesterone (57-83-0)): 12/13 (92%), 10/12 (83%), 10%, ns

Q: Which results are given for `COc1ccc(CCN(C)CCCC(C#N)(c2ccc(OC)c(OC)c2)C(C)C)cc1OC` (centres undefined)?
A: tumour outcome (control, treated, inhibition, significance) (Carcinogen: 7,12-DIMETHYLBENZ[A]ANTHRACENE, 57-97-6, Dose [Inhibitor]: 0, 3.5 MG/KG/D IN DRINKING WATER (STUDY DURATION: 20 WK), Route [Inhibitor]: ORAL, Species: RAT, Strain/Sex: SPRAGUE-DAWLEY/FEMALE, Target Tissue: Type of Lesion: MAMMARY GLAND: TUMOR, Dose [Carcinogen]: 50 MG/KG ONCE, Promoter: NONE USED): 9/20 (45%), 3/20(15%), 67%, p< 0.05; tumour outcome (control, treated, inhibition, significance) (Carcinogen: 7,12-DIMETHYLBENZ[A]ANTHRACENE, 57-97-6, Dose [Inhibitor]: 0, 2 UMOL 1/WK FOR 21 WK APPLIED 1 HR POST EACH PROMOTER DOSE (STUDY DURATION: 21 WK), Route [Inhibitor]: DERMAL, Species: MOUSE, Strain/Sex: SENCAR/FEMALE, Target Tissue: Type of Lesion: SKIN: PAPILLOMA, Dose [Carcinogen]: 25 NMOL ONCE, Promoter: CHRYSAROBIN, 491-58-7): 90%, 82%, 9%, not significant; tumour outcome (control, treated, inhibition, significance) (Carcinogen: N-NITROSOMORPHOLINE, 59-89-2, Dose [Inhibitor]: 0, 20 MG/KG BW IN 0.9% SALINE 1/2 D FOR DURATION OF STUDY (STUDY DURATION: 16 WK), Route [Inhibitor]: INTRAPERITONEAL, Species: RAT, Strain/Sex: SPRAGUE-DAWLEY/MALE, Target Tissue: Type of Lesion: LIVER: HEPATOCELLULAR CARCINOMA, Dose [Carcinogen]: 175 MG/L IN DRINKING WATER FOR 8 WK, Promoter: NONE USED): 10/20 (50%), 3/20 (15%), 70%, p<0.05

Q: With `CC1=C(/C=C/C(C)=C/C=C/C(C)=C\C(=O)Nc2nn[nH]n2)C(C)(C)CCC1` as the compound, how does the “tumour outcome (control, treated, inhibition, significance)” value (Carcinogen: N-BUTYL-N-(4-HYDROXYBUTYL)NITROSAMINE, 3817-11-6, Dose [Inhibitor]: 1.5 MMOL/KG DIET DAILY FOR 159 D STARTING 1 WK AFTER THE FINAL CARCINOGEN DOSE (STUDY DURATION: 216 D), Route [Inhibitor]: ORAL, Species: MOUSE, Strain/Sex: BDF/MALE, Target Tissue: Type of Lesion: URINARY BLADDER: TRANSITIONAL CELL CARCINOMA, Dose [Carcinogen]: 7.5 MG 1/WK FOR 8 WK, Promoter: NONE USED) read?
A: 29/98 (30%), 26/100 (26%), 13%, not significant

Q: What about the “tumour outcome (control, treated, inhibition, significance)” value (Carcinogen: N-BUTYL-N-(4-HYDROXYBUTYL)NITROSAMINE, 3817-11-6, Dose [Inhibitor]: 1.5 MMOL/KG/D IN DIET FOR 159 D STARTING 1 WK POST CARCINOGEN TREATMENT (STUDY DURATION: 216 D), Route [Inhibitor]: ORAL, Species: MOUSE, Strain/Sex: BDF/MALE, Target Tissue: Type of Lesion: URINARY BLADDER: TRANSITIONAL CELL CARCINOMA, Dose [Carcinogen]: 7.5 MG 1/WK FOR 8 WK, Promoter: NONE USED) of the same compound?
A: 29/98 (30%), 26/100 (26%), 13%, not significant

Q: For `CCC(C)C1NC(=O)C(C(C)=O)=C1O` (centres undefined), which “tumour outcome (control, treated, inhibition, significance)” value (Carcinogen: 7,12-DIMETHYLBENZ[A]ANTHRACENE, 57-97-6, Dose [Inhibitor]: 0, 250 UG 3/WK APPLIED 30 MIN PRIOR TO EACH PROMOTER DOSE FOR 140 D (STUDY DURATION: 140 D), Route [Inhibitor]: DERMAL, Species: MOUSE, Strain/Sex: SWISS/FEMALE, Target Tissue: Type of Lesion: SKIN: TUMOR, Dose [Carcinogen]: 200 NMOL IN 100 µL ACETONE ONCE, Promoter: 12-O-TETRADECANOYLPHORBOL-13-ACETATE, 16561-29-8) is on record?
A: 100%, 70%, 30%, not calculated
